Test results reported in PubChem BioAssay (NCI).
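Cultured in 96-well plates, cells were exposed to test compound for 48 hours across five concentrations. TGI: total growth inhibition.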

Legend:
Assay in all cases: NCI-60 cell line screen, 48 h
[1] = test system: A498 renal
[2] = test system: ACHN renal
[3] = test system: DU-145 prostate
[4] = test system: EKVX NSCLC
[5] = test system: IGROV1 ovarian
[6] = test system: KM12 colon
[7] = test system: M14 melanoma
[8] = test system: MDA-N
[9] = test system: OVCAR-3 ovarian
[10] = test system: RPMI-8226 leukemia
[11] = test system: SNB-19 CNS

Compound	TGI [1] [µM]	TGI [2] [µM]	TGI [3] [µM]	TGI [4] [µM]	TGI [5] [µM]	TGI [6] [µM]	TGI [7] [µM]	TGI [8] [µM]	TGI [9] [µM]	TGI [10] [µM]	TGI [11] [µM]
CCOC(=O)c1c(CN2CCNCC2)nc2ccccc2c1-c1ccccc1	28.3	30.4	31.3	29.3	29.2	31.2	28.2	23.3	31.8	32.5	33.6
Cc1cccc2c1[nH]c1[nH]c(=O)[nH]c(=O)c12	> 100	> 100	> 100	> 100	> 100	> 100	> 100	> 100	> 100	> 100	> 100
C/C(=N\NC(=S)N1CCCCC1)c1cccc(C)n1	0.607	2.67	2.22	31.2	12.8	17.5	0.394	20.3	12.1	> 100	> 36
O=C1C=CC(=O)C(CNc2ccc(C(=O)OC34CC5CC(CC(C5)C3)C4)cc2)=C1	28	19.1	47.6	25.3	4.86	22.5	31.1	19.2	14.4	7.01	27.8
COC(=O)[C@H]1[C@@H](C(C)C)O[C@@H](C(C)C)O[C@H]1C(F)(F)F	> 100	> 100	> 100	> 100	> 100	> 100	> 100	> 100	> 100	> 100	> 100
N=C1N(S(=O)(=O)c2ccccc2)[C@@H](Cc2ccccc2)[C@H](c2ccccc2)C1(c1ccccc1)c1ccccc1	> 100	> 100	> 100	> 100	> 100	> 100	> 100	> 100	> 100	> 100	> 100
